According to US20180279622A1, “1-AMINO-1-CYCLOPROPANECARBOXYLIC ACID FORMULATIONS” (Valent BioSciences LLC, priority 2017, published 2018):
Read-outs that look alike come from different tables or passages of the source. Blank lines part the entries; values can stand above or below the molecule they belong to.

Legend:
[1] = Color change inhibition (Gardner Color Scale); type: physicochemical; settings: for Color (Gardner Scale): 54° C. for two weeks
Method: Specifically, the color changed from clear or a 1 on the Gardner Scale to a yellow color of 4-5 on the Gardener Scale. See ASTM D1544-04(2010), Standard Test Method for Color of Transparent Liquids (Gardner Color Scale), ASTM International, West Conshohocken, Pa., 2010, www.astm.org for explanation of the Gardner scale. To overcome this problem several methods were tested including lowering the pH to 4.0, packaging under nitrogen gas blanket, adding specific salts, chelating agents, antioxidants or preservatives.

[2] = ACC precipitation and crystallization tests; type: physicochemical
[3] = ACC precipitation and crystallization tests; type: physicochemical; remark: listed apart in the source
Method: To overcome this problem, salts were added individually to 10% w/w ACC aqueous solutions. These solutions were stored at room temperature and analyzed for precipitate formation.

Gala apple trees = assay: Apple thinning; type: in vivo; settings: foliar spray at 18 to 20 mm mean fruit diameter
Method: The formula from Example 8, above, was diluted to prepare 200 and 400 ppm ACC solutions. These solutions were applied as a foliar spray to Gala apple trees grown at three separate locations when the mean fruit diameter was from 18 to 20 millimeters. […] Thinning activity is expressed as the number of fruit set per 100 flower clusters after the completion of natural fruit drop.

cotton cotyledons = assay: Cotton cotyledon bioefficacy assay (headspace ethylene evolution); type: in vivo
Method: The solutions were amended with 0.05% (v/v) of a non-ionic surfactant and spray applied to the adaxial surface of 10-day old cotton cotyledons using a track sprayer. In addition to ACC-containing solutions, appropriate controls were tested. Two days (48 hours) after spray application, the cotyledons from each plant were removed, weighed and incubated in sealed glass vials for 4 to 7 hours. Headspace ethylene evolution by the cotyledons was measured by gas chromatography using standard methods. The assay from Example 5, above, was repeated with a formulation containing 0.2% w/w EDTA.

[4] = additive 0.2 % w/w in 10% ACC, 10% calcium chloride, Kathon CG/ICP formulation
[5] = salt added to 10% w/w ACC aqueous solution, 5° C. overnight
[6] = salt added to 10% w/w ACC aqueous solution, stored at room temperature

Structure (SMILES): Cl [2N hydrochloric acid, hydrochloric acid]
Color (Gardner Scale) ([1]; additive 0.6-0.9 % w/w): 3-4

Structure (SMILES): O=C([O-])CC(O)(CC(=O)[O-])C(=O)[O-].[Na+].[Na+].[Na+] [Sodium citrate]
Color (Gardner Scale) [1, 4]: 4-5

Structure (SMILES): O=[N+]([O-])[O-].O=[N+]([O-])[O-].[Mg+2] [Mg(NO3)2]
Precipitation (5° C.) [2, 5]: YES

Precipitation (5° C.) [2, 5]: YES
Structure (SMILES): [Cl-].[Cl-].[Mg+2] [MgCl2]

Color (Gardner Scale) [1, 4]: 4-5
Structure (SMILES): O=C(O)/C=C/C(=O)O [Fumaric acid]

Precipitation (5° C.) [2, 5]: YES
Precipitation (room temperature) [3, 6]: YES
Structure (SMILES): CC(O)C(=O)[O-].CC(O)C(=O)[O-].O.O.O.O.O.[Ca+2] (stereo not drawn) [(CH3CH(OH)COO)2Ca•5H2O]

Structure (SMILES): O=C(O)CC(O)(CC(=O)O)C(=O)O [Citric acid]
Color (Gardner Scale) [1, 4]: 4-5

Structure (SMILES): O=[N+]([O-])[O-].[Ag+] [AgNO3]
Precipitation (5° C.) [2, 5]: YES
Precipitation (room temperature) [3, 6]: YES

Precipitation ([3]; 10% w/w ACC free acid in water, no salt, room temperature and/or 5° C.): precipitate
Structure (SMILES): NC1(C(=O)O)CC1 [ACC, 1-amino-1-cyclopropanecarboxylic acid]
Thinning Activity (Gala apple trees; Geneva, NY, 200 ppm ACC): 47 fruit set per 100 flower clusters
Thinning Activity (Gala apple trees; Geneva, NY, 400 ppm ACC): 37 fruit set per 100 flower clusters
Thinning Activity (Gala apple trees; Monitor, WA, 200 ppm ACC): 32 fruit set per 100 flower clusters
Thinning Activity (Gala apple trees; Monitor, WA, 400 ppm ACC): 10 fruit set per 100 flower clusters
Thinning Activity (Gala apple trees; Parkdale, OR, 200 ppm ACC): 267 fruit set per 100 flower clusters
Thinning Activity (Gala apple trees; Parkdale, OR, 400 ppm ACC): 194 fruit set per 100 flower clusters
Ethylene (cotton cotyledons; ACC 500 ppm, molar ratio 1:0, 48 hours after spray): 39.80 nL/gFW/hr
Ethylene (cotton cotyledons; Example 6, ACC 500 ppm): 27.6 nL/g FW/hr

Structure (SMILES): CC(=O)[O-].[Na+] [Sodium acetate]
Color (Gardner Scale) [1, 4]: 4-5

Gardner scale score ([1]; EDTA at 0.1% or 0.2% w/w, 2 weeks at 54° C.): ≤ 2
Gardner scale score ([1]; EDTA at 0.1% or 0.2% w/w, 2 weeks plus 6 additional weeks at 54° C.): 1-2
Color maintenance versus pH ([1]; EDTA at 0.1% or 0.2% w/w, pH 4.0): best results
Time clear color maintained ([1]; EDTA at 0.1% or 0.2% w/w, pH 5.2, 54° C.): at least 4 weeks
Color (Gardner Scale) ([1]; additive 0.1 % w/w): 1-2
Color (Gardner Scale) ([1]; additive 0.5 % w/w): 1-2
Structure (SMILES): O=C(O)CN(CCN(CC(=O)O)CC(=O)O)CC(=O)O [EDTA, ethylenediaminetetraacetic acid]

Structure (SMILES): O=C([O-])CC(O)(CC(=O)[O-])C(=O)[O-].[Fe+3] [Iron(III) citrate hydrate]
Precipitation (5° C.) [2, 5]: YES
Precipitation (room temperature) [3, 6]: YES

Structure (SMILES): [Ca+2].[Cl-].[Cl-] [CaCl2, calcium chloride]
Ethylene (cotton cotyledons; CaCl2 550 ppm, molar ratio ACC:CaCl2 0:1, 48 hours after spray): 1.49 nL/gFW/hr

Structure (SMILES): NC(N)=O [Urea]
Color (Gardner Scale) [1, 4]: 5-6

Precipitation (5° C.) [2, 5]: YES
Precipitation (room temperature) [3, 6]: YES
Structure (SMILES): O=S(=O)([O-])[O-].O=S(=O)([O-])[O-].O=S(=O)([O-])[O-].[Al+3].[Al+3] [Al2(SO4)3]

Precipitation (5° C.) [2, 5]: YES
Precipitation (room temperature) [3, 6]: YES
Structure (SMILES): [Cl-].[K+] [KCl]

Structure (SMILES): O=[N+]([O-])[O-].O=[N+]([O-])[O-].[Ca+2] [Ca(NO3)2]
Precipitation (5° C.) [2, 5]: YES

Structure (SMILES): [Ba+2].[Cl-].[Cl-] [BaCl2]
Precipitation (5° C.) [2, 5]: YES

Structure (SMILES): O=[N+]([O-])[O-].[K+] [KNO3]
Precipitation (5° C.) [2, 5]: YES
Precipitation (room temperature) [3, 6]: YES

Precipitation (5° C.) [2, 5]: YES
Precipitation (room temperature) [3, 6]: YES
Structure (SMILES): O=S(=O)([O-])[O-].[Ca+2] [CaSO4]

Structure (SMILES): N.O=[N+]([O-])O [NH4NO3]
Precipitation (5° C.) [2]: YES
Precipitation (room temperature) [3]: YES

Color (Gardner Scale) [1, 4]: >18
Structure (SMILES): O=C1O[C@H]([C@@H](O)CO)C(O)=C1O [Ascorbic acid]

Structure (SMILES): Cl.N [NH4Cl]
Precipitation (5° C.) [2, 5]: YES
Precipitation (room temperature) [3, 6]: YES
